ChEMBL document CHEMBL5696442, “Discovery of type II inhibitors of TGFβ-activated kinase 1 (TAK1) and mitogen-activated protein kinase kinase kinase kinase 2 (MAP4K2)” (J Med Chem, 2015)
Active and inactive are the calls of the source. No cut-off for these calls is given here.

Experiments:
[1] = target: Serine/threonine-protein kinase PLK1 (Homo sapiens) (UniProt P53350); assay: Inhibition of PLK1 (unknown origin) at 10 uM by Ambit Kinomescan binding assay
[2] = target: Cyclin-dependent kinase 1 (Homo sapiens) (UniProt P06493); assay: Inhibition of CDC2 K2 labeling site harbouring DLKPQNLLIDDKGTIK in human Huh-7 cells at 1 uM by KiNativ Profiling analysis relative to control; type: cell-based
[3] = target: Mitogen-activated protein kinase kinase kinase kinase 4 (Homo sapiens, UniProt O95819); assay: Inhibition of ZC1 Lys2 labeling site in human A-375 cells at 5 uM by KiNativ Profiling analysis relative to control; type: cell-based
Sequence of Mitogen-activated protein kinase kinase kinase kinase 4 (O95819 2-1239 limits assumed): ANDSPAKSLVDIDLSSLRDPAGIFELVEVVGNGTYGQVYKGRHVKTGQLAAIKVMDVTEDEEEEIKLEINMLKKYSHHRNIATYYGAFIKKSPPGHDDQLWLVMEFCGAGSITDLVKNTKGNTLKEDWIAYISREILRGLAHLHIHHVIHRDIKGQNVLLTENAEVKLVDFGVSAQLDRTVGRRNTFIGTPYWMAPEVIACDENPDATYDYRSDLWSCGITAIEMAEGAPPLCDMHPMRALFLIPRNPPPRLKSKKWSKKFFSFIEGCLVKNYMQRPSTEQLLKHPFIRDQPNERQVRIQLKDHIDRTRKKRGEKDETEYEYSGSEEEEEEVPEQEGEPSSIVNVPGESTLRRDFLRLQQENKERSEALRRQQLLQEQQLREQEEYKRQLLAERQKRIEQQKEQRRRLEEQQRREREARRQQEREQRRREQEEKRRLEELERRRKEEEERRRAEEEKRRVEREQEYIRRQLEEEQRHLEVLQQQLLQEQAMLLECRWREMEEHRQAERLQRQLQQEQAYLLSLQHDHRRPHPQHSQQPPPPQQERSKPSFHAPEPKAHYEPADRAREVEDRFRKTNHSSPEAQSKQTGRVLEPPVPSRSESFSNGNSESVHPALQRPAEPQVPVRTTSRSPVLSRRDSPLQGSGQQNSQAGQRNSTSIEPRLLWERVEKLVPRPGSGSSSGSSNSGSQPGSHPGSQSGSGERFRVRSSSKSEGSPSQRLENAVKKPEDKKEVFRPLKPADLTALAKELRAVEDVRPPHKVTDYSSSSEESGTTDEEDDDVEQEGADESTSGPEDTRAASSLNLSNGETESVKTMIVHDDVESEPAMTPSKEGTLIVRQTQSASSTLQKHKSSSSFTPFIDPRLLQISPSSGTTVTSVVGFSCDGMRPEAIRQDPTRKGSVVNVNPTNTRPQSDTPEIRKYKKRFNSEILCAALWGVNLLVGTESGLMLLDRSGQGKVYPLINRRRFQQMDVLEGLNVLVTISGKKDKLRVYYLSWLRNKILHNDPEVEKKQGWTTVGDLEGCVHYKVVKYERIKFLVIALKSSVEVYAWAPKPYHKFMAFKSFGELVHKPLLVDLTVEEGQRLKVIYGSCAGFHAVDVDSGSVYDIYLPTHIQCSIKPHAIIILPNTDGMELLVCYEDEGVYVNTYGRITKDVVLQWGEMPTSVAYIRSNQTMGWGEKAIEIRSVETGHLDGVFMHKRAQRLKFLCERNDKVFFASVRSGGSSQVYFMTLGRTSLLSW

[4] = target: AP2-associated protein kinase 1 (Homo sapiens) (UniProt Q2M2I8); assay: Inhibition of AAK1 (unknown origin) at 10 uM by Ambit Kinomescan binding assay
Sequence of AP2-associated protein kinase 1 (Homo sapiens) (Q2M2I8 whole entry, looked up): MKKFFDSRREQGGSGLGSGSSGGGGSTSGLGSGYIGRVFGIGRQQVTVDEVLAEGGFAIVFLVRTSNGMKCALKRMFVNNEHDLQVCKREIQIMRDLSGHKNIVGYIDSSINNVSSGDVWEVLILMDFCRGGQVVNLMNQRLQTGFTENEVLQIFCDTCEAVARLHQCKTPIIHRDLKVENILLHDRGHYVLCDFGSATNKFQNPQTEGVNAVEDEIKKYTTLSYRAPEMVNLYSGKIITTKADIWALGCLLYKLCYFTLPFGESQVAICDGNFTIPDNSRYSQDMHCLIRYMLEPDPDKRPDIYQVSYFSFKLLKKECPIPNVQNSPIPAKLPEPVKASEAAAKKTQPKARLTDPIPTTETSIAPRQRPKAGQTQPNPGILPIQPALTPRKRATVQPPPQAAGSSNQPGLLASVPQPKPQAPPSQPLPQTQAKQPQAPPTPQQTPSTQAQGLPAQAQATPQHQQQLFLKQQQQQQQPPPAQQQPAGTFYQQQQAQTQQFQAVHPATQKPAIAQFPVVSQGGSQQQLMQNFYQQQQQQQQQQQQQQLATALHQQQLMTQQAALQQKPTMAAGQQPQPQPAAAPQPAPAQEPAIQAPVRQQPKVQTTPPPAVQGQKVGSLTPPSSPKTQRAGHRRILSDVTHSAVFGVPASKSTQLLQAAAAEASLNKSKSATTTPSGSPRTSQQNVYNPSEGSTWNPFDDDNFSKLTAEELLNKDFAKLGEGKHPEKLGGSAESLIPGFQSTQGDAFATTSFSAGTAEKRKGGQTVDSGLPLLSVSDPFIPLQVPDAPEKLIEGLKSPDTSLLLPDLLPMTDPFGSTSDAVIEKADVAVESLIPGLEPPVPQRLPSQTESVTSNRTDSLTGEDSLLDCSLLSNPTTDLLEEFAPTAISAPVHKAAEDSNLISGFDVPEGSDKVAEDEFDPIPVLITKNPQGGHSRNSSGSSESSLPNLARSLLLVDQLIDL

[5] = test system: Tyrosine-protein kinase ABL1 (Homo sapiens), P00519 [T315I]; assay: Inhibition of ABL1 T315I mutant (unknown origin) at 10 uM by Ambit Kinomescan binding assay relative to control; values are per cent of control
[6] = target: T1, Serine/threonine-protein kinase greatwall (Homo sapiens) (UniProt Q96GX5); assay: Inhibition of MASTL K2 labeling site in human Huh-7 cells at 1 uM by KiNativ Profiling analysis relative to control; type: cell-based
T1 sequence (whole entry): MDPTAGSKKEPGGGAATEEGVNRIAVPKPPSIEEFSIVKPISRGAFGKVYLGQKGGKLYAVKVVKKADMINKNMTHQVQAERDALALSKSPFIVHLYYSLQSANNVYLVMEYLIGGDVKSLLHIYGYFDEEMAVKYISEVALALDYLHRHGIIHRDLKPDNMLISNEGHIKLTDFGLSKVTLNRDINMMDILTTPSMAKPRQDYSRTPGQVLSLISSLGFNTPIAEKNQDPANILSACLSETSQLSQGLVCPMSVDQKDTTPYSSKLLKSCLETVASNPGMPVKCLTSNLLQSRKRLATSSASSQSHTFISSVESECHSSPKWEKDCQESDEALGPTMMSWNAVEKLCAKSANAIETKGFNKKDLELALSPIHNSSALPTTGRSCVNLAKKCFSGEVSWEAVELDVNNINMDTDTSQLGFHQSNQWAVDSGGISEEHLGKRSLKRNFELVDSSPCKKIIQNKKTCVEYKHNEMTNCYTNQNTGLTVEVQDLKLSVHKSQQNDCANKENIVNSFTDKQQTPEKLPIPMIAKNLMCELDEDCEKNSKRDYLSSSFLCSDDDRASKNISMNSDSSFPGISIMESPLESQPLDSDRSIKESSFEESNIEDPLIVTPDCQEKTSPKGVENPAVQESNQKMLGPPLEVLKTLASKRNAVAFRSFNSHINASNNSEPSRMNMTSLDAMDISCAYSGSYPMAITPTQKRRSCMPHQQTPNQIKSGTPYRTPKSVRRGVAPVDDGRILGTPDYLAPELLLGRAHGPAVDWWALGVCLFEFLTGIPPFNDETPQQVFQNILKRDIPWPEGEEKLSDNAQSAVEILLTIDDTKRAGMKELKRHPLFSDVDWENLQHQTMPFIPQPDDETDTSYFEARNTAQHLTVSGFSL

[7] = target: Serine/threonine-protein kinase Nek7 (Homo sapiens) (UniProt Q8TDX7); assay: Inhibition of NEK7 Lys1 labeling site in human Huh-7 cells at 1 uM by KiNativ Profiling analysis relative to control; type: cell-based
[8] = target: Phosphatidylinositol 4,5-bisphosphate 3-kinase catalytic subunit beta isoform (Homo sapiens) (UniProt P42338); assay: Inhibition of PIK3CB ATP labeling site harbouring VFGEDSVGVIFKNGDDLRQDMLTLQMLR in human Huh-7 cells at 1 uM by KiNativ Profiling analysis relative to control; type: cell-based
Sequence of Phosphatidylinositol 4,5-bisphosphate 3-kinase catalytic subunit beta isoform (Homo sapiens) (P42338 whole entry, looked up, canonical isoform): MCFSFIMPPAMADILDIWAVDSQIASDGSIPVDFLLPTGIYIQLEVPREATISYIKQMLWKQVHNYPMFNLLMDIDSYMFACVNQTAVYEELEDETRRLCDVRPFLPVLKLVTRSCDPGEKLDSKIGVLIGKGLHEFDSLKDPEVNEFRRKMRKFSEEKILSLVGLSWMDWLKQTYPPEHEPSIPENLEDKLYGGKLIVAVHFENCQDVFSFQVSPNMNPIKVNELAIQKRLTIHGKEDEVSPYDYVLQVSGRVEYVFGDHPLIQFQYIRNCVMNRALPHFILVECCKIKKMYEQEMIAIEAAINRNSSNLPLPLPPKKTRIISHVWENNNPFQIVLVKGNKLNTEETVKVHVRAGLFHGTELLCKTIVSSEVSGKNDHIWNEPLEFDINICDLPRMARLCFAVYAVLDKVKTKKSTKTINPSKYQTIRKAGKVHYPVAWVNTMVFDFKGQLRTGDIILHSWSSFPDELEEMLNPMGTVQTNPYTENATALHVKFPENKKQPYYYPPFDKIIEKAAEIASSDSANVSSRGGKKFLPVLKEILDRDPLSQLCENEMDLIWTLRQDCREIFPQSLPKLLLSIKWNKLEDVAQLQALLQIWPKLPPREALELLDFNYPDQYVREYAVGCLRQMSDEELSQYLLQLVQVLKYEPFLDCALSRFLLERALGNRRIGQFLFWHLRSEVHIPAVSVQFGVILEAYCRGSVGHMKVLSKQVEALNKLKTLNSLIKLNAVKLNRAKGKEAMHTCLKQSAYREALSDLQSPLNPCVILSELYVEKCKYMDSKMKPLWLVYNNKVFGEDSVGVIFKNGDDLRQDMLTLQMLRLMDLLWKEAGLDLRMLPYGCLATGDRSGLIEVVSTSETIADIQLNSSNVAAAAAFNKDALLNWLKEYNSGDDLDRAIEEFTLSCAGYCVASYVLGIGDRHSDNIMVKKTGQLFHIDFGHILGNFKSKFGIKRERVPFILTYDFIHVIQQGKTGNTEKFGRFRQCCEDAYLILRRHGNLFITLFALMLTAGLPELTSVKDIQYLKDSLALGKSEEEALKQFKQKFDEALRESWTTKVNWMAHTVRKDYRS

[9] = target: Calcium/calmodulin-dependent protein kinase type II subunit delta (Homo sapiens) (UniProt Q13557); assay: Inhibition of CaMK2d Lys1 labeling site harbouring IPTGQEYAAKIINTKK in human Huh-7 cell lysate at 1 uM by KiNativ Profiling analysis relative to control; type: subcellular
[10] = target: Serine/threonine-protein kinase 24 (Homo sapiens) (UniProt Q9Y6E0); assay: Inhibition of MST3 Lys2 labeling site harbouring DIKAANVLLSEHGEVK in human Huh-7 cell lysate at 1 uM by KiNativ Profiling analysis relative to control; type: subcellular
Sequence of Serine/threonine-protein kinase 24 (Homo sapiens) (Q9Y6E0 whole entry, looked up): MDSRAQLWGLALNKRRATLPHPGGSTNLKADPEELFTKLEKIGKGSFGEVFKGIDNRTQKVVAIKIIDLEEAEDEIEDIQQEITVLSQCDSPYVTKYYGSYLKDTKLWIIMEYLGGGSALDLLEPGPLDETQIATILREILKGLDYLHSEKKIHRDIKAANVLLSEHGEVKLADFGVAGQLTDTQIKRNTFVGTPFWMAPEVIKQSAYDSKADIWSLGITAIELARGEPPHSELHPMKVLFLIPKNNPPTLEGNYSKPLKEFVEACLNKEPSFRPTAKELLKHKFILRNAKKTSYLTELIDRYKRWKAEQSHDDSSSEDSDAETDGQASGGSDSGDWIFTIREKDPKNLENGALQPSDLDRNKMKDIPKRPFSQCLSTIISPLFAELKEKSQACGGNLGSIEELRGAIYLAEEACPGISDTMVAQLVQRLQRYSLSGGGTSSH

[11] = Inhibition of CASK Lys1 labeling site in human Huh-7 cells at 1 uM by KiNativ Profiling analysis relative to control
[12] = target: Mitogen-activated protein kinase kinase kinase 10 (Homo sapiens) (UniProt Q02779); assay: Inhibition of MLK2 (unknown origin) at 1 uM by Ambit Kinomescan binding assay relative to control; values are per cent of control
[13] = target: Serine/threonine-protein kinase 4 (Homo sapiens) (UniProt Q13043); assay: Inhibition of MST1 (unknown origin) at 1 uM by Ambit Kinomescan binding assay relative to control
Sequence of Serine/threonine-protein kinase 4 (Homo sapiens) (Q13043 whole entry, looked up, the tested form may be a part): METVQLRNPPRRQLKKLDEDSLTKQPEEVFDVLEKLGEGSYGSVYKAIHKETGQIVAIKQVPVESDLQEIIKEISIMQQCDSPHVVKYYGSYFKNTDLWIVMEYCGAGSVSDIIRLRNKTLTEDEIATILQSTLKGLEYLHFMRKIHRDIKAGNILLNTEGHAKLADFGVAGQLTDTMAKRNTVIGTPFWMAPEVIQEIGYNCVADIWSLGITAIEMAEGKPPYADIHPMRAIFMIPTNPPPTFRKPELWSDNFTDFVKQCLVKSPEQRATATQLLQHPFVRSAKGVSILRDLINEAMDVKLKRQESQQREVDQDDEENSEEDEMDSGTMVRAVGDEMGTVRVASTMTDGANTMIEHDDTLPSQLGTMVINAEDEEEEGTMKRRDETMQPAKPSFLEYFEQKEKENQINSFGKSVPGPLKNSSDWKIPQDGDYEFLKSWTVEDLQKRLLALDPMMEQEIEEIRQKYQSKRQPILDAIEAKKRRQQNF

[14] = target: Serine/threonine-protein kinase 4 (Homo sapiens) (UniProt Q13043); assay: Inhibition of MST1 Lys1 labeling site harbouring AIHKETGQIVAIKQVPVESDLQEIIK in human A-375 cells at 5 uM by KiNativ Profiling analysis relative to control
[15] = target: Ribosomal protein S6 kinase alpha-6 (Homo sapiens) (UniProt Q9UK32); assay: Inhibition of C-terminal RSK4 kinase domain 2 (unknown origin) at 1 uM by Ambit Kinomescan binding assay relative to control

Sequence of Serine/threonine-protein kinase PLK1 (Homo sapiens) (P53350 whole entry): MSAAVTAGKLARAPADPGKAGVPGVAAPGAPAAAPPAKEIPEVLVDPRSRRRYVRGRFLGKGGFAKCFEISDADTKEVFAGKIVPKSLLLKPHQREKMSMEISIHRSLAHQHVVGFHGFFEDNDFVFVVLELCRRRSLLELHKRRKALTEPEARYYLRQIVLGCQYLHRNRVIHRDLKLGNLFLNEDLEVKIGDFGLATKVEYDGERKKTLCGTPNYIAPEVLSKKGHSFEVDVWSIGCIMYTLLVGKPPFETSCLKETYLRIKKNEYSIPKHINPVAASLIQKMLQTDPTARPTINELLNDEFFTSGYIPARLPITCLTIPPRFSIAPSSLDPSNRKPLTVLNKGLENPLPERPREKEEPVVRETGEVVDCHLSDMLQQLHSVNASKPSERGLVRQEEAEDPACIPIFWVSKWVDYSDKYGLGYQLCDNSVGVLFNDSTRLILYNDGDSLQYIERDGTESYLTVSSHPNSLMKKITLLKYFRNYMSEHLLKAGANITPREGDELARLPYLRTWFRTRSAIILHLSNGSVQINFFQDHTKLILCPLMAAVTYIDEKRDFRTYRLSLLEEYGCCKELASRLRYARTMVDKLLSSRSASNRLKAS

CCN1CCN(Cc2ccc(NC(=O)c3ccc(C)c(Oc4ccnc5[nH]ccc45)c3)cc2C(F)(F)F)CC1
inhibition [1]: inactive
inhibition [2]: 7.9%
inhibition [3]: 92.7%
inhibition [4]: inactive
percent of control [5]: 0%
inhibition [6]: -2.1%

CNc1cc(Oc2cc(C(=O)Nc3cc(N4CCN(C)CC4)cc(C(F)(F)F)c3)ccc2C)ncn1
inhibition [7]: 7.6%
inhibition [8]: 14%
inhibition [9]: 15.4%
inhibition [10]: 5.5%
inhibition [11]: 16%

CCN1CCN(Cc2ccc(NC(=O)c3ccc(C)c(/C=C/c4cnc5[nH]ccc5c4OC)c3)cc2C(F)(F)F)CC1
residual activity [12]: 53%
inhibition [13]: 72%
inhibition [14]: 16.1%
inhibition [15]: 50%
